Experimental findings from publication PMC9937538 (Journal of Medicinal Chemistry, 2022) are described below.

Counter-ions that a name gives are not always drawn. Like-named read-outs stand apart in the source and are kept apart here.

Assay [1] addresses hCA IX (Homo sapiens, UniProt Q16790). Put plainly: CA inhibition, stopped-flow CO2 hydration assay.
Description: (§1) An applied photophysics stopped-flow instrument was used for assaying the CA-catalyzed CO2 hydration activity.[37]
(§2) The uncatalyzed rates were determined in the same manner and subtracted from the total observed rates. Stock solutions of the inhibitor (0.1 mM) were prepared in distilled–deionized water, and dilutions up to 0.01 nM were done thereafter with the assay buffer. Inhibitor and enzyme solutions were preincubated together for 15 min at room temperature prior to the assay to allow for the formation of the E–I complex. The inhibition constants were obtained by nonlinear least-squares methods using PRISM 3 and the Cheng–Prusoff equation, as reported earlier, and represent the mean from at least three different determinations. All CA isoforms were recombinant proteins obtained in-house, as reported earlier.[44]−[46]
Assay [2] addresses hCA I (Homo sapiens, UniProt P00915). Put plainly: CA inhibition, stopped-flow CO2 hydration assay.
Description: as §1, §2
In assay [3] the target is hCA II (Homo sapiens, UniProt P00918). Description: CA inhibition, stopped-flow CO2 hydration assay.
Description: as §1, §2
For assay [4], the target named is hCA IV (Homo sapiens, UniProt P22748). Description: CA inhibition, stopped-flow CO2 hydration assay.
hCA IV, sequence (P22748 19-312): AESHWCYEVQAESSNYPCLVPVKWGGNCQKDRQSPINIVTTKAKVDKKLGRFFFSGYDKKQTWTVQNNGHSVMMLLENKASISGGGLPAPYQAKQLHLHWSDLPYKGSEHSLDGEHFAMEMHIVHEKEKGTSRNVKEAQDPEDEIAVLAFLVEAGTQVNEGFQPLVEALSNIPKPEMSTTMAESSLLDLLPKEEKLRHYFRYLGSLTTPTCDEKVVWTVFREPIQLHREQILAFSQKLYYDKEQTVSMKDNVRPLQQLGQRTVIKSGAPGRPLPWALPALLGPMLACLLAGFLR
Description: as §1, §2
Assay [5] has as its target hCA VA (Homo sapiens, UniProt P35218). Description: CA inhibition, stopped-flow CO2 hydration assay.
Description: as §1, §2
For assay [6], the target named is hCA VB (Homo sapiens, UniProt Q9Y2D0). Description: CA inhibition, stopped-flow CO2 hydration assay.
hCA VB, sequence (Q9Y2D0 34-317): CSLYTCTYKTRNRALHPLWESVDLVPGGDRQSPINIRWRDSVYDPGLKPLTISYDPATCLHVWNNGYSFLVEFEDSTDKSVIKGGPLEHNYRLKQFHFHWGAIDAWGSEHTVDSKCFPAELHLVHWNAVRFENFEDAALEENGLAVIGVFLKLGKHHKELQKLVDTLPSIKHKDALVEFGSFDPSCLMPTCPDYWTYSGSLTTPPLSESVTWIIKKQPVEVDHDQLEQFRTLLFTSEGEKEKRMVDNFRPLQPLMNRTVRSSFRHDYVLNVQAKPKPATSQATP
Description: as §1, §2
Assay [7] addresses T1, purified recombinant human DPP IV (Homo sapiens, UniProt P27487).
T1 construct: purchased Cayman Chemicals (Michigan)
Description: In vitro DPP IV activity assay (fluorogenic Gly-Pro-AMC substrate). It counts as biochemical. As to the method:
The DPP IV inhibition activities of the entire sets of compounds were carried out on purified recombinant human DPP IV using conditions previously optimized.[35]
Four independent in vitro experiments were carried out, and each of those was performed in triplicate in a white half-volume 96-well solid plate. […] Afterward, the samples were mixed and 50 μL was transferred to each plate well. Each reaction was started by adding 50 μL of the substrate solution (200 μM H-Gly-Pro-7-amido-4-methylcoumarin (AMC)) to each well and incubated at 37 °C for 30 min. […] The DPP IV enzyme and the substrate solution were provided by Cayman Chemicals (Michigan).

Assay [8] addresses T2, human cloned α1a-AR (Homo sapiens, UniProt P35348).
T2 construct: expressed in transfected cells
T2 sequence (P35348 1-466): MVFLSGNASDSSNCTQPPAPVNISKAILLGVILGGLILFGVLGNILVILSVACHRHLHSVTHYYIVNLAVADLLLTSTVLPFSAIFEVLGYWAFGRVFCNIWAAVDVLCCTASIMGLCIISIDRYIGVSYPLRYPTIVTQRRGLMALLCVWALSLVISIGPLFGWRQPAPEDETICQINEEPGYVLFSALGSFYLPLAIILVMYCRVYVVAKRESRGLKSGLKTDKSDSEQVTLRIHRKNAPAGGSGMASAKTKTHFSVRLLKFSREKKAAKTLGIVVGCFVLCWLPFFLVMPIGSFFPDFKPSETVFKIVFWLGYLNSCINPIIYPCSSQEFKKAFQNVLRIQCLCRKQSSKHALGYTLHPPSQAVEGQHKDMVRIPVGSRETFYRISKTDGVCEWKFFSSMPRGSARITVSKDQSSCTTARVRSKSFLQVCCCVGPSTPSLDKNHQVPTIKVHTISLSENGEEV
Description: α1a-AR binding assay ([3H]prazosin displacement). The note with it: human cloned α1a-AR expressed in HEK293 cells. An excerpt:
Since WB-4101 is a potent α1 antagonist, this adrenoreceptor subtype was chosen to assess the loss of adrenergic affinity.
Figure S3. […] Curves […]
from single experiments were fitted using the standard four parameter logistic equation and represent the mean ± S.E.M. of 4 observations, 2 experi-ments. X-axis: Log concentrations of competitive test compounds. Y-axis: normalized [3H]prazosin Bound/Total bound.
In the table are reported the affinity constants, expressed as pKi (-log Ki), of compounds 11, 12 and WB-4101 for human cloned α1a-AR expressed in HEK293 cells. The values represent the arithmetic mean ± S.E.M. of 4 observations, 2 experiments.
ND, not determinable; NA, not available.
Note: data generated from binding assays were analyzed using Prism 5.02 (GraphPad Software Inc., San Diego, CA) and were fitted to a parametric function to derive best estimates of the IC50 and slope factor (nH); IC50 values were then converted to binding constant Ki according to Cheng-Prus- […]
The details on the α1a-AR binding assay have been described before2.
(1 picture or pasted object on this page, not shown here)

[9] abbreviates: read-out: Ki CA IX, stopped-flow technique, mean from three assays.
[10] abbreviates: read-out: Ki CA I, stopped-flow technique, mean from three assays.
The mark [11] stands for this setting: read-out: Ki CA II, stopped-flow technique, mean from three assays.
The mark [12] stands for this setting: read-out: Ki CA IV, stopped-flow technique, mean from three assays.
The mark [13] stands for this setting: read-out: Ki CA VA, stopped-flow technique, mean from three assays.
[14] abbreviates: read-out: Ki CA VB, stopped-flow technique, mean from three assays.
Setting [15] is: mean from three different assays.

T1 sequence (P27487 whole entry): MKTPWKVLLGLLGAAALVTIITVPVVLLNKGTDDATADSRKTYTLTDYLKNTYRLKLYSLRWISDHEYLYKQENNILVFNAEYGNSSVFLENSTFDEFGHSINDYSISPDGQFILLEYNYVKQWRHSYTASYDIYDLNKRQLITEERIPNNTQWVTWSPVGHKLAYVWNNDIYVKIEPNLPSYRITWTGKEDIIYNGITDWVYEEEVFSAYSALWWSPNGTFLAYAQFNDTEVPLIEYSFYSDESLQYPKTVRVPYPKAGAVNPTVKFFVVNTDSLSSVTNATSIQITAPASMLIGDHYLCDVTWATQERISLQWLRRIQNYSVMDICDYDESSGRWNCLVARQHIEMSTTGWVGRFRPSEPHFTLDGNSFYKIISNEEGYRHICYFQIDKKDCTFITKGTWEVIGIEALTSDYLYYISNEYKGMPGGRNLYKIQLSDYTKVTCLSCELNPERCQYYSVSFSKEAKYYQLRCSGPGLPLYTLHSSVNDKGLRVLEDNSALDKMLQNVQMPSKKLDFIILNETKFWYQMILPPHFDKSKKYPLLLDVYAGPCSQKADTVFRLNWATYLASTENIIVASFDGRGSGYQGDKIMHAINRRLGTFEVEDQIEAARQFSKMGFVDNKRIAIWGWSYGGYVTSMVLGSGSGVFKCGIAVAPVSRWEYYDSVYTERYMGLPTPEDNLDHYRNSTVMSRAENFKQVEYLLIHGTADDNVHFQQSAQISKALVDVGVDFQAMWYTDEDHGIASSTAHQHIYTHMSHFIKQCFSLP
hCA VA, sequence (P35218 39-305): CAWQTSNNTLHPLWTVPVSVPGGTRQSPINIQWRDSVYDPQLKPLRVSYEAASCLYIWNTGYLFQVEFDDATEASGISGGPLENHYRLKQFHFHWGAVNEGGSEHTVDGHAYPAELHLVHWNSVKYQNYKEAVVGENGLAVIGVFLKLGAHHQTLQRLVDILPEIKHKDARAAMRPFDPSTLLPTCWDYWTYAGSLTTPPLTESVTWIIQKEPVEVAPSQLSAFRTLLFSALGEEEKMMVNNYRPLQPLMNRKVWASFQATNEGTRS
hCA I, sequence (P00915 whole entry): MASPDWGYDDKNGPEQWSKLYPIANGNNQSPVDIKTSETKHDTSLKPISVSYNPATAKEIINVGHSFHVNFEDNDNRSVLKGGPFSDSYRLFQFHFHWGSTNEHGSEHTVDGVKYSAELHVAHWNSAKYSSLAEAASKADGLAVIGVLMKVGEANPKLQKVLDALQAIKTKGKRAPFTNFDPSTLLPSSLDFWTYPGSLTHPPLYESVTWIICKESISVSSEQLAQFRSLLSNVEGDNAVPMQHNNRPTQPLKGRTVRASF

For the molecule `NS(=O)(=O)c1ccc(OCCNCC2COc3ccccc3O2)cc1` (stereo not shown) [Compound 1, [((2-(4-Sulfonamidephenoxy)ethyl)amino)-methyl]-1,4-benzodioxane Hydrochloride], the Ki (as a rule, the dissociation constant of the complex between target and ligand, obtained from inhibition or displacement) in assay [1] (setting [9]) is 0.0203 µM.
On to `CNS(=O)(=O)c1ccc(OCCNCC2COc3ccccc3O2)cc1` (stereo not shown) [Compound 2, [((2-(4-Methylsulfonamidephenoxy)ethyl)amino)-methyl]-1,4-benzodioxane Hydrochloride], for which the Ki in assay [2] (setting [10]), in assay [3] (setting [11]), in assay [4] (setting [12]), in assay [5] (setting [13]), in assay [6] (setting [14]) and in assay [1] (setting [9]) was > 10 µM in each case.
As for `CCNS(=O)(=O)c1ccc(OCCNCC2COc3ccccc3O2)cc1` (stereo not shown) [Compound 3, [((2-(4-Ethylsulfonamidephenoxy)ethyl)amino)-methyl]-1,4-benzodioxane Hydrochloride], the Ki in assay [2] (setting [10]), in assay [3] (setting [11]), in assay [4] (setting [12]), in assay [5] (setting [13]), in assay [6] (setting [14]) and in assay [1] (setting [9]) was > 10 µM in each case.
As for `CN(C)S(=O)(=O)c1ccc(OCCNCC2COc3ccccc3O2)cc1` (stereo not shown) [Compound 4, [((2-(4-Dimethylsulfonamidephenoxy)ethyl)amino)-methyl]-1,4-benzodioxane Hydrochloride], the Ki in assay [2] (setting [10]), in assay [3] (setting [11]), in assay [4] (setting [12]), in assay [5] (setting [13]), in assay [6] (setting [14]) and in assay [1] (setting [9]) was > 10 µM in each case.
Turning to `CC(C)NS(=O)(=O)c1ccc(OCCNCC2COc3ccccc3O2)cc1` (stereo not shown) [Compound 5, [((2-(4-Isopropylsulfonamidephenoxy)ethyl)amino)-methyl]-1,4-benzodioxane Hydrochloride], the inhibition constant Ki in assay [2], in assay [3], in assay [4], in assay [5], in assay [6] and in assay [1] was > 10 µM throughout.
Turning to `CS(=O)(=O)Nc1ccc(OCCNCC2COc3ccccc3O2)cc1` (stereo not shown) [Compound 6, [((2-(4-Methylsulfonylamidephenoxy)ethyl)amino)-methyl]-1,4-benzodioxane Hydrochloride], the Ki in assay [2] (setting [10]), in assay [3] (setting [11]), in assay [4] (setting [12]), in assay [5] (setting [13]), in assay [6] (setting [14]) and in assay [1] (setting [9]) was > 10 µM each time.
On to `CCS(=O)(=O)Nc1ccc(OCCNCC2COc3ccccc3O2)cc1` (stereo not shown) [Compound 7, [((2-(4-Ethylsulfonylamidephenoxy)ethyl)amino)-methyl]-1,4-benzodioxane Hydrochloride], for which the Ki in assay [2] (setting [10]), in assay [3] (setting [11]), in assay [4] (setting [12]), in assay [5] (setting [13]), in assay [6] (setting [14]) and in assay [1] (setting [9]) was > 10 µM each time.
Turning to `CC(C)CS(=O)(=O)Nc1ccc(OCCNCC2COc3ccccc3O2)cc1` (stereo not shown) [Compound 8, [((2-(4-Isobutylsulfanilaminophenoxy)ethyl)amino)-methyl]-1,4-benzodioxane Hydrochloride], the Ki in assay [2] (setting [10]), in assay [3] (setting [11]), in assay [4] (setting [12]), in assay [5] (setting [13]), in assay [6] (setting [14]) and in assay [1] (setting [9]) was > 10 µM in each case.
Regarding `[N-]=[N+]=NC(CCOc1ccc(S(N)(=O)=O)cc1)C1COc2ccccc2O1` (stereo not shown) [Compound 9, 4-(3-Azido-3-(1,4-benzodioxan)propoxy)benzenesulfonamide], the IC50 – broadly, the concentration at which inhibition is half-maximal – in assay [7] (setting [15]) was 669 ± 23.5 µM. Moreover, the Ki in assay [1] (setting [9]) is 0.328 µM.
For `COc1cc(S(N)(=O)=O)ccc1OCCC(N=[N+]=[N-])C1COc2ccccc2O1` (stereo not shown) [Compound 10, 3-Methoxy-4-(3-azido-3-(1,4-benzodioxan)propoxy)benzenesulfonamide], in assay [1] (setting [9]), the Ki was determined as 0.111 µM.
`COc1cc(S(N)(=O)=O)cc(OC)c1OCCC(N=[N+]=[N-])C1COc2ccccc2O1` (stereo not shown) [Compound 11, 3,5-Dimethoxy-4-(3-azido-3-(1,4-benzodioxan)propoxy)benzenesulfonamide]: the IC50 in assay [7] (setting [15]) turned out to be 0.0332 ± 0.0058 µM. Further, the “binding affinity toward α1a-AR (in words)” value in assay [8] is recorded as “absence of the binding affinity”. For the same molecule, in assay [8] (mean ± S.E.M.), the “pKi α1a-AR” value is >4. In addition, the Ki in assay [1] (setting [9]) amounted to 0.745 µM.
With `COc1cc(S(N)(=O)=O)ccc1OCCC(N)C1COc2ccccc2O1` (stereo not shown) [Compound 13, 3-Methoxy-4-(3-amino-3-(1,4-benzodioxan)propoxy)benzenesulfonamide], the IC50 in assay [7] (setting [15]) worked out at 57.4 ± 3.2 µM. The Ki in assay [1] (setting [9]) was found to be 0.0311 µM.
The matching figures for `COc1cc(S(N)(=O)=O)cc(OC)c1OCCC(N)C1COc2ccccc2O1` (stereo not shown) [Compound 14, 3,5-Dimethoxy-4-(3-amino-3-(1,4-benzodioxan)propoxy)benzenesulfonamide]: 0.0283 ± 0.0035 µM and 0.955 µM.
Turning to `N[C@@H](CC(=O)N1CCn2c(nnc2C(F)(F)F)C1)Cc1cc(F)c(F)cc1F` [Sitagliptin, reference compound], the Ki in assay [2] (setting [10]), in assay [3] (setting [11]), in assay [4] (setting [12]), in assay [5] (setting [13]), in assay [6] (setting [14]) and in assay [1] (setting [9]) was > 10 µM throughout.
As for `COc1cccc(OC)c1OCCNCC1COc2ccccc2O1` (stereo not shown) [WB-4101, 2-[(2,6-dimethoxyphenoxyethyl)aminomethyl]-1,4-benzodioxane, reference compound], in assay [7], the half-maximal inhibitory concentration (IC50) was > 700 µM. The Ki in assay [2] (setting [10]), in assay [3] (setting [11]), in assay [4] (setting [12]), in assay [5] (setting [13]), in assay [6] (setting [14]) and in assay [1] (setting [9]) was > 10 µM throughout.
